We go through seven compounds from US20020169193A1, “Alkylphenyliminoimidazolidine derivatives for treating urinary incontinence” (priority 2001, published 2002).

One data set concerns the target CYP2D6 (Homo sapiens, UniProt P10635). The data set can be described thus: Metabolism: substrate breakdown by enzyme CYP2D6. It counts as in vitro ADME. The procedure:
To determine the metabolism the enzyme CYP2D6 was allowed to act on the test substances. After 30 minutes, a check was made to see how much of the test substance put in had been degraded by the enzyme.

Another data set concerns HLM. The data set can be described thus: Metabolism: decomposition under the effect of HLM. It counts as in vitro ADME. As to the method: The decomposition under the effect of the enzyme HLM/60 minutes was tested analogously.
In a further data set the test system is the Dog. The experiment in a line: Efficacy: maximum contraction in the dog compared with noradrenaline. As to conditions: percentage of contraction compared with noradrenaline. As to the method:
(§1) The efficacy and selectivity of the compounds is determined as follows:
(§2) Maximum contraction in the dog and activity on human urethra are percentages of contraction compared with noradrenaline. Selectivity in the dog is the percentage contraction of the dog's femoral artery at 10^−5 M—percentage contraction of the carotid artery in the dog at 10^−5 M.

Data set [1] concerns dog's femoral artery / carotid artery in the dog. The experiment in a line: Selectivity in the dog: femoral artery versus carotid artery contraction. The conditions noted are these: percentage contraction of femoral artery at 10^−5 M — percentage contraction of carotid artery at 10^−5 M. The procedure:
as §1, §2

The nature of data set [2]: Bioavailability, oral versus intravenous administration in rats, plasma HPLC. It counts as in vivo. As to conditions: male fasted rats, oral vs intravenous, pooled plasma; for bioavailability: rat. The procedure: To determine the bioavailability, the test substances were administered orally to a group of 8 male fasted rats. As a control, animals in an identical second group were given the test substances intravenously. At specified times after administration (10 minutes, 30 minutes, 1 hour, 2 hours and 4 hours, and additionally 6 hours in the case of the animals in the oral group) 1 mL blood samples were taken from the animals in both groups. The blood samples taken in each group were mixed together (8 mL). The content of the corresponding test substances in the blood for the appropriate time was determined from the plasma after further working up by HPLC (High Performance Liquid Chromatography) using standard methods and correlated for the two groups.

A further data set relates to Human Urethra. The experiment in a line: Efficacy: contraction of human urethra compared with noradrenaline. As to conditions: percentage of contraction compared with noradrenaline. As to the method:
as §1, §2

CYP2D6, sequence (P10635 whole entry): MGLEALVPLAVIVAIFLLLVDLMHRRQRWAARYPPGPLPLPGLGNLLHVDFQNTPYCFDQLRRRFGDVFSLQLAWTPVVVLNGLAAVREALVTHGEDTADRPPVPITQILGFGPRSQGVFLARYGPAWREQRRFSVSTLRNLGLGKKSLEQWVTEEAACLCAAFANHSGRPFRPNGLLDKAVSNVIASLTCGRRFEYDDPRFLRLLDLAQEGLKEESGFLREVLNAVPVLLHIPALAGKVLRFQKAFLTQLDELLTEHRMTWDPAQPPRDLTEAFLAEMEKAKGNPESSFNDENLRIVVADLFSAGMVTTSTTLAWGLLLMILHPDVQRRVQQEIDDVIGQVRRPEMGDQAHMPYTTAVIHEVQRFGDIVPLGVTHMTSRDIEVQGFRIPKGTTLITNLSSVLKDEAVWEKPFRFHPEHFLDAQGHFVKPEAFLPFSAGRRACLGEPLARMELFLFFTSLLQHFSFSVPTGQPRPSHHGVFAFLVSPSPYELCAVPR

Regarding `CC(C)(C)c1ccc(Br)c(N=C2NCCN2)c1` [Compound 6, 6′-bromo-3′-tert-butylphen-1′-yl-2-iminoimidazolidine], the “% Substrate Breakdown After 30 Minutes Incubation with CYP2D6” value on CYP2D6 was 3.0%. Moreover, in the data set with HLM, the “% Substrate Breakdown After 60 Minutes Incubation with HLM” value is reported as 2.8%. Moreover, the “Activity in the Dog” value with the Dog is listed as 28%.
In the case of `Cc1c(C(C)C)ccc(Br)c1NC1=NCCN1` [Compound 5, 6′-bromo-3′-isopropyl-2′-methylphen-1′-yl-2-iminoimidazolidine], on CYP2D6, the “% Substrate Breakdown After 30 Minutes Incubation with CYP2D6” value was determined as 8.7%. Also, the “% Substrate Breakdown After 60 Minutes Incubation with HLM” value in the data set with HLM amounted to 7.5%. Besides, in the data set on the Dog, the “Activity in the Dog” value is listed as 34%. For the same compound, in data set [1], the “Selectivity in the Dog” value was determined as 0.4.
`COc1ccc(C(C)(C)C)cc1N=C1NCCN1` [Compound 2, 3′-tert-butyl-6′-methoxyphen-1′-yl-2-iminoimidazolidine] came in with a Bioavailability in % in data set [2] of 34%. For the same compound, the “% Substrate Breakdown After 30 Minutes Incubation with CYP2D6” value at CYP2D6 is recorded as 0.7%. The “% Substrate Breakdown After 60 Minutes Incubation with HLM” value with HLM stood at 2.7%. The “Activity in the Dog” value in the data set with the Dog was 71%. Moreover, the “Activity on Human Urethra” value with Human Urethra was 30%. Moreover, in data set [1], the “Selectivity in the Dog” value is recorded as 0.6.
Turning to `Cc1c(NC2=NCCN2)cccc1C(C)C` [Compound 1, 3′-isopropyl-2′-methylphen-1′-yl-2-iminoimidazolidine], at CYP2D6, the “% Substrate Breakdown After 30 Minutes Incubation with CYP2D6” value is listed as 18.2%. Besides, the “% Substrate Breakdown After 60 Minutes Incubation with HLM” value with HLM is given as 13.5%. Also, the “Activity in the Dog” value with the Dog stood at 78%. In addition, the “Activity on Human Urethra” value in the data set with Human Urethra came out at 11%. The “Selectivity in the Dog” value in data set [1] is given as 0.7.
One may read the bioavailability as the share of a dose that reaches the circulation, judged against a reference dose that is usually intravenous. Low readings indicate poor availability, high ones good availability. With `Cc1c(NC2=NCCN2)ccc(Br)c1C(C)C` [Compound 7, 4′-bromo-3′-isopropyl-2′-methylphen-1′-yl-2-iminoimidazolidine], the bioavailability in data set [2] turned out to be 53%. The “% Substrate Breakdown After 30 Minutes Incubation with CYP2D6” value on CYP2D6 is listed as 5.0%. In the data set on the Dog, the “Activity in the Dog” value stood at 70%. Further, in the data set on Human Urethra, the “Activity on Human Urethra” value is 21%. In data set [1], the “Selectivity in the Dog” value turned out to be 0.7.
`Cc1c(C(C)C)ccc(Cl)c1NC1=NCCN1` [Compound 3, 6′-chloro-3′-isopropyl-2′-methylphen-1′-yl-2-iminoimidazolidine] showed a bioavailability in data set [2] of 8%. Moreover, on CYP2D6, the “% Substrate Breakdown After 30 Minutes Incubation with CYP2D6” value is 6.1%. For the same compound, the “% Substrate Breakdown After 60 Minutes Incubation with HLM” value with HLM turned out to be 11.7%. In addition, the “Activity in the Dog” value with the Dog is 70%. Further, in the data set on Human Urethra, the “Activity on Human Urethra” value is 41%. Also, in data set [1], the “Selectivity in the Dog” value worked out at 0.7.
Turning to `Cc1c(NC2=NCCN2)ccc(Cl)c1C(C)C` [Compound 4, 4′-chloro-3′-isopropyl-2′-methylphen-1′-yl-2-iminoimidazolidine], the “% Substrate Breakdown After 30 Minutes Incubation with CYP2D6” value at CYP2D6 turned out to be 7.6%. Besides, in the data set with HLM, the “% Substrate Breakdown After 60 Minutes Incubation with HLM” value was determined as 5.5%. Further, the “Activity in the Dog” value in the data set on the Dog stood at 59%. Moreover, the “Selectivity in the Dog” value in data set [1] was found to be 0.5.
